Experimental data reported in US20190002448A1, “SUBSTITUTED BENZOFURANYL AND BENZOXAZOLYL COMPOUNDS AND USES THEREOF” (Karyopharm Therapeutics Inc., priority 2015, published 2019).

Assays:
Format in all cases: cell-based
[1] = tested on: MS751 cells; assay: MTT cell proliferation assay, MS751 cells; details: Homo sapiens; MS751 cervical squamous cell carcinoma cells; approximately 64-72 hours incubation; read-out: MTT Assay IC50 MS-751
Description: (§1) The MTT cell proliferation assay was used to study the cytotoxic properties of the compounds. The assay was performed according to the method described by Roche Molecular Biochemicals, with minor modifications. The assay is based on the cleavage of the tetrazolium salt, MTT, in the presence of an electron-coupling reagent. The water-insoluble formazan salt produced must be solubilized in an additional step. Cells grown in a 96-well tissue culture plate were incubated with the MTT solution for approximately 4 hours. After this incubation period, a water-insoluble formazan dye formed. After solubilization, the formazan dye was quantitated using a scanning multi-well spectrophotometer (ELISA reader). […] The cells were seeded at 5,000-10,000 cells in each well of 96-well plate in 100 μL of fresh culture medium and were allowed to attach overnight. The stock solutions of the compounds were diluted in 100 μL cell culture medium to obtain eight concentrations of each test compound, ranging from 1 nM to 30 μM. […] All optical densities were measured at 490 nm using a Vmax Kinetic Microplate Reader (Molecular Devices). In most cases, the assay was performed in duplicate and the results were presented as a mean percent inhibition to the negative control±SE. The following formula was used to calculate the percent of inhibition: Inhibition (%)=(1−(ODo/OD))×100.
(§2) The compounds were tested against MS751, Z138 and 3T3 cells. The MS751 cell line is derived from a metastasis to lymph node of human cervix from a patient diagnosed with squameous cell carcinoma of the cervix. The Z138 cell line is a mature B-cell acute lymphoblastic leukemia cell line derived from a patient with chronic lumphocytic leukemia. 3T3 cells are standard fibroblast cells; they were originally isolated from Swiss mouse embryo tissue.

[2] = tested on: Z138 cells; assay: MTT cell proliferation assay, Z138 cells; details: Homo sapiens, Z-138, approximately 64-72 hours incubation
Description: as §1, §2

[3] = tested on: 3T3 cells; assay: MTT cell proliferation assay, 3T3 cells; details: Mus musculus, NIH3T3; 3T3 fibroblast cells; approximately 64-72 hours incubation
Description: as §1, §2

Measured: IC50

Nc1ccc(/C=C/C(=O)NCc2cc3cc(-c4ccc(C(=O)N5CCC(F)(F)CC5)cc4F)cc(Oc4cccc(F)c4)c3o2)cn1 [Compound 102, (E)-3-(6-aminopyridin-3-yl)-N-((5-(4-(4,4-difluoropiperidine-1-carbonyl)-2-fluorophenyl)-7-(3-fluorophenoxy)benzofuran-2-yl)methyl)acrylamide]
100 to 5000 nM: all assays above

Nc1ccc(/C=C/C(=O)NCc2cc3cc(-c4ccc(C(=O)N5CCC(F)(F)CC5)cc4)cc(OC4CCC4)c3o2)cn1 [Compound 104, (E)-3-(6-aminopyridin-3-yl)-N-((7-cyclobutoxy-5-(4-(4,4-difluoropiperidine-1-carbonyl)phenyl)benzofuran-2-yl)methyl)acrylamide]
100 to 5000 nM: all assays above

Nc1ccc(/C=C/C(=O)NCc2cc3cc(-c4ccc(C(=O)N5CCC(F)(F)CC5)cc4F)cc(OC4CCC4)c3o2)cn1 [Compound 105, (E)-3-(6-aminopyridin-3-yl)-N-((7-cyclobutoxy-5-(4-(4,4-difluoropiperidine-1-carbonyl)-2-fluorophenyl)benzofuran-2-yl)methyl)acrylamide]
100 to 5000 nM: all assays above

Nc1ccc(/C=C/C(=O)NCc2cc3cc(-c4ccc(C(=O)N5CCC(F)(F)CC5)cc4)cc(Oc4ccc(F)cc4)c3o2)cn1 [Compound 100, (E)-3-(6-aminopyridin-3-yl)-N-((5-(4-(4,4-difluoropiperidine-1-carbonyl)phenyl)-7-(4-fluorophenoxy)benzofuran-2-yl)methyl)acrylamide]
100 to 5000 nM: all assays above

Nc1ccc(/C=C/C(=O)NCc2cc3cc(-c4ccc(C(=O)N5CCC(F)(F)CC5)cc4)cc(Oc4cccc(F)c4)c3o2)cn1 [Compound 101, (E)-3-(6-aminopyridin-3-yl)-N-((5-(4-(4,4-difluoropiperidine-1-carbonyl)phenyl)-7-(3-fluorophenoxy)benzofuran-2-yl)methyl)acrylamide]
100 to 5000 nM: all assays above

Nc1ccc(/C=C/C(=O)NCc2cc3cc(-c4ccc(C(=O)N5CCC(F)(F)CC5)cc4F)cc(Oc4ccc(F)cc4)c3o2)cn1 [Compound 103, (E)-3-(6-aminopyridin-3-yl)-N-((5-(4-(4,4-difluoropiperidine-1-carbonyl)-2-fluorophenyl)-7-(4-fluorophenoxy)benzofuran-2-yl)methyl)acrylamide]
100 to 5000 nM: all assays above
